Measurements from patent publication US10106578B2, “Melanocortin-1 receptor-specific linear peptides” (Palatin Technologies, Inc., priority 2012, dated 2018).
Where a SMILES comes first, the peptide text is derived from it. [ ]: non-standard residue; d: D form. Nle = CCCC[C@H](N)C(=O)O; Sar = CNCC(=O)O

Columns and labels:
hMCR-1 = molecular target: T1, hMCR-1 (Homo sapiens, UniProt Q01726); assay: Assay for agonist activity: cAMP accumulation in HBL human melanoma cells; format: cell-based; settings: for Emax: compared to reference agonist NDP-α-MSH, read-out: MC-1 Emax (average; cAMP HBL); for EC50: read-out: MC-1 EC50 (average; cAMP HBL)
T1 construct: endogenous in cells; host or cells: HBL human melanoma cell line
Excerpt: Accumulation of intracellular cAMP was examined as a measure of the ability of the peptides of the present invention to elicit a functional response in a human melanoma cell line, HBL, that express hMCR-1 (see Kang, L., et al., “A selective small molecule agonist of melanocortin-1 receptor inhibits lipopolysaccharide-induced cytokine accumulation and leukocyte infiltration in mice,” J. Leuk. Biol. 80:897-904 (2006)) or HEK-293 cells that express hMCR-4. Confluent HBL cells that express hMCR-1 or HEK-293 cells that express recombinant hMCR-4 were detached from culture plates by incubation in enzyme-free cell dissociation buffer. Dispersed cells were suspended in Earle's Balanced Salt Solution containing 10 mM HEPES (pH 7.5), 1 mM MgCl2, 1 mM glutamine, 0.5% albumin and 0.3 mM 3-isobutyl-1-methyl-xanthine (IBMX), a phosphodiesterase inhibitor. The cells were plated in 96-well plates at a density of 0.4×10^5 cells per well for HBL cells and 0.5×10^5 cells per well for HEK-293 cells and pre-incubated for 10 minutes. Cells were exposed for 15 minutes at 37° C. to peptides of the present invention dissolved in DMSO (final DMSO concentration of 1%) at a concentration range of 0.05-5000 nM in a total assay volume of 200 μL. NDP-α-MSH was used as the reference agonist. cAMP levels were determined by an HTRF® cAMP cell-based assay system from Cisbio Bioassays utilizing cryptate-labeled anti-cAMP and d2-labeled cAMP, with plates read on a Perkin-Elmer Victor plate reader at […]. Data analysis was performed by nonlinear regression analysis with Graph-Pad PRISM® software. Maximum efficacy (Emax) values were determined for each test peptide of the present invention, compared to that achieved by the reference melanocortin agonist NDP-α-MSH.
(§1) Peptides of the following structures were synthesized and purified as described in Section 5 above, with the resulting peptide having the structure depicted. After synthesis and purification, the foregoing peptide was tested as described in Section 8 above, and average MCR-1 and MCR-4 Ki values determined as indicated. All Ki values were determined using [I^125]-NDP-α-MSH. All results are expressed in nM except for Emax values, which are percentage values.

hMCR-1a = molecular target: T2, hMCR-1a (Homo sapiens, UniProt Q01726); assay: Competitive inhibition binding assay using [I125]-NDP-α-MSH, hMCR-1a membranes; settings: HEK-293 membranes, recombinant human MCR-1, [I125]-NDP-α-MSH; read-out: MC-1 Ki (average)
T2 construct: expressed in transfected cells; host or cells: HEK-293 cells (membrane homogenates)
Method: (§2) A competitive inhibition binding assay was performed using membrane homogenates prepared from HEK-293 cells that express recombinant hMCR-1a or hMCR-4 (in each instance where the h prefix refers to human), or alternatively membrane homogenates from B16-F10 mouse melanoma cells containing endogenous murine MCR-1. In the examples that follow, all MCR-1 and MCR-4 values are for human recombinant receptors, unless otherwise noted. Assays were performed in 96 well polypropylene round-bottom plates (VWR catalog number 12777-030). Membrane homogenates were incubated with 0.1 nM [I^125]-NDP-α-MSH (Perkin Elmer) and increasing concentrations of test peptides of the present invention in buffer containing 25 mM HEPES buffer (pH 7.5) with 100 mM NaCl, 2 mM CaCl2, 2 mM MgCl2, 0.3 mM 1,10-phenanthroline, and 0.2% bovine serum albumin. After incubation for 90 minutes at 37° C., the assay mixture was filtered onto GF/B Unifilter plates (Perkin-Elmer catalog number 6005177) and washed with 3 mL of ice-cold buffer per well. Filters were air dried and 35 μL of scintillation cocktail added to each well. Plates were counted in a Microbeta counter for bound radioactivity. Non-specific binding was measured by inhibition of binding of [I^125]-NDP-α-MSH in the presence of 1 μM NDP-α-MSH. Maximal specific binding (100%) was defined as the difference in radioactivity (cpm) bound to cell membranes in the absence and presence of 1 μM NDP-α-MSH. Each assay was conducted in duplicate and the actual mean values are described, with results less than 0% reported as 0%. Ki values for peptides of the present invention were determined using Graph-Pad PRISM® curve-fitting software.
as §1

hMCR-4 = molecular target: T3, hMCR-4 (Homo sapiens, UniProt P32245); assay: Competitive inhibition binding assay using [I125]-NDP-α-MSH, hMCR-4 membranes; settings: HEK-293 membranes, recombinant human MCR-4, [I125]-NDP-α-MSH; read-out: MC-4 Ki (average)
T3 construct: expressed in transfected cells; host or cells: HEK-293 cells (membrane homogenates)
Method: as §2, §1

T3 sequence (P32245 whole entry): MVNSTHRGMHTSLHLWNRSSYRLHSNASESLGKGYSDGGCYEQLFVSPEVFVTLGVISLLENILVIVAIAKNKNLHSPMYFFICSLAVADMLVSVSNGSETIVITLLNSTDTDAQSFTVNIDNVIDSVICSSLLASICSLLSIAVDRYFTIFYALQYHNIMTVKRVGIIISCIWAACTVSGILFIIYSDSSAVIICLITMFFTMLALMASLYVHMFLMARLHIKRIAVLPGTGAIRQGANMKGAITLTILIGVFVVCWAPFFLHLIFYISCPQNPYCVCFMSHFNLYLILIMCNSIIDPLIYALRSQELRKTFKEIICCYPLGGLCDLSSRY
T1 sequence (Q01726 whole entry): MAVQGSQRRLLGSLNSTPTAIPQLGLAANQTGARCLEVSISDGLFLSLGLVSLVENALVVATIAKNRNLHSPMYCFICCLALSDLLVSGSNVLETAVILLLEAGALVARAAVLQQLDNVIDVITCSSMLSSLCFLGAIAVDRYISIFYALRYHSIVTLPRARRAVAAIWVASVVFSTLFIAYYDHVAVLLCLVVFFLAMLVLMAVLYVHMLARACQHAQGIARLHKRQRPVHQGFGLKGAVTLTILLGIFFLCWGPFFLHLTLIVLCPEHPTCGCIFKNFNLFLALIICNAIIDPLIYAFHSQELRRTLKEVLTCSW
T2 sequence (Q01726 whole entry): as above

Row | Compound | Emax (hMCR-1) [%] | Ki (hMCR-1a) [nM] | EC50 (hMCR-1) [nM] | Ki (hMCR-4) [nM]
1 | CCCC[C@H](NC(C)=O)C(=O)N[C@@H](Cc1c[nH]cn1)C(=O)N[C@@H](Cc1ccccc1)C(=O)N[C@@H](CCCNC(=N)N)C(=O)N[C@@H](C)C(=O)N[C@@H](Cc1c[nH]c2ccccc12)C(N)=O [Example 9.8, Ac-Nle-His-Phe-Arg-Ala-Trp-NH2] (Ac-[Nle]HFRAW-NH2) | 55 | – | – | –
2 | CCCC[C@H](NC(C)=O)C(=O)N[C@@H](C)C(=O)N[C@@H](Cc1ccccc1)C(=O)N[C@H](Cc1ccccc1)C(=O)N[C@@H](CCCNC(=N)N)C(=O)N[C@@H](C)C(=O)N[C@@H](Cc1c[nH]c2ccccc12)C(N)=O [Example 9.19, Ac-Nle-Ala-Phe-D-Phe-Arg-Ala-Trp-NH2] (Ac-[Nle]AF[dF]RAW-NH2) | 99 | 20 | 6 | –
3 | CCCC[C@H](NC(C)=O)C(=O)N[C@@H](C)C(=O)N[C@@H](CCCNC(=N)N)C(=O)N[C@H](Cc1ccccc1)C(=O)N[C@@H](CCCNC(=N)N)C(=O)N[C@@H](C)C(=O)N[C@@H](Cc1c[nH]c2ccccc12)C(N)=O [Example 9.18, Ac-Nle-Ala-Arg-D-Phe-Arg-Ala-Trp-NH2] (Ac-[Nle]AR[dF]RAW-NH2) | 106 | – | – | –
4 | CCCC[C@H](NC(C)=O)C(=O)N[C@@H](C)C(=O)N[C@@H](Cc1c[nH]cn1)C(=O)N[C@H](Cc1ccccc1)C(=O)N[C@@H](CCCNC(=N)N)C(=O)N1CCC[C@@H]1C(=O)N[C@H](Cc1c[nH]c2ccccc12)C(N)=O [Example 9.12, Ac-Nle-Ala-His-D-Phe-Arg-D-Pro-D-Trp-NH2] (Ac-[Nle]AH[dF]R[dP][dW]-NH2) | 72 | 20 | 2 | –
5 | CCCC[C@H](NC(C)=O)C(=O)N[C@@H](C)C(=O)N[C@H](Cc1ccccc1)C(=O)N[C@@H](CCCNC(=N)N)C(=O)N[C@@H](C)C(=O)N[C@@H](Cc1c[nH]c2ccccc12)C(N)=O [Example 9.10, Ac-Nle-Ala-D-Phe-Arg-Ala-Trp-NH2] (Ac-[Nle]A[dF]RAW-NH2) | 85 | – | – | –
6 | CCCC[C@H](NC(C)=O)C(=O)N[C@@H](C)C(=O)N[C@@H](Cc1c[nH]cn1)C(=O)N[C@@H](Cc1ccccc1)C(=O)N[C@@H](CCCNC(=N)N)C(=O)N[C@@H](C)C(=O)N[C@@H](Cc1c[nH]c2ccccc12)C(N)=O [Example 9.6, Ac-Nle-Ala-His-Phe-Arg-Ala-Trp-NH2] (Ac-[Nle]AHFRAW-NH2) | 72 | – | 4 | –
7 | CCCC[C@H](NC(C)=O)C(=O)N[C@@H](C)C(=O)N[C@@H](Cc1c[nH]cn1)C(=O)N[C@H](Cc1ccccc1)C(=O)N[C@@H](CCCNC(=N)N)C(=O)N[C@@H](C)C(=O)N[C@@H](Cc1c[nH]c2ccccc12)C(N)=O [Example 9.1, Ac-Nle-Ala-His-D-Phe-Arg-Ala-Trp-NH2] (Ac-[Nle]AH[dF]RAW-NH2) | 96 | – | – | –
8 | CCCC[C@H](NC(C)=O)C(=O)N[C@@H](C)C(=O)N[C@@H](Cc1c[nH]cn1)C(=O)N[C@H](Cc1ccccc1)C(=O)N[C@@H](CCCNC(=N)N)C(=O)NCC(=O)N[C@@H](Cc1c[nH]c2ccccc12)C(N)=O [Example 9.5, Ac-Nle-Ala-His-D-Phe-Arg-Gly-Trp-NH2] (Ac-[Nle]AH[dF]RGW-NH2) | 90 | – | – | –
9 | CCCC[C@H](NC(C)=O)C(=O)N[C@@H](C)C(=O)N[C@@H](Cc1c[nH]cn1)C(=O)N[C@H](Cc1ccccc1)C(=O)N[C@@H](CCCNC(=N)N)C(=O)N1CCC[C@H]1C(=O)N[C@@H](Cc1c[nH]c2ccccc12)C(N)=O [Example 9.2, Ac-Nle-Ala-His-D-Phe-Arg-Pro-Trp-NH2] (Ac-[Nle]AH[dF]RPW-NH2) | 78 | – | – | –
10 | CCCC[C@H](NC(C)=O)C(=O)N[C@@H](C)C(=O)N[C@@H](Cc1c[nH]cn1)C(=O)N[C@H](Cc1ccccc1)C(=O)N[C@@H](CCCNC(=N)N)C(=O)N[C@@H](C)C(=O)N[C@@H](Cc1c[nH]c2ccccc12)C(=O)O [Example 9.14, Ac-Nle-Ala-His-D-Phe-Arg-Ala-Trp-OH] (Ac-[Nle]AH[dF]RAW-OH) | 73 | 6 | – | –
11 | CCCC[C@H](NC(C)=O)C(=O)N[C@@H](C)C(=O)N[C@@H](Cc1c[nH]cn1)C(=O)N[C@H](Cc1ccccc1)C(=O)N[C@@H](CCCNC(=N)N)C(=O)N1CCC[C@H]1C(=O)N[C@H](Cc1c[nH]c2ccccc12)C(N)=O [Example 9.13, Ac-Nle-Ala-His-D-Phe-Arg-Pro-D-Trp-NH2] (Ac-[Nle]AH[dF]RP[dW]-NH2) | 90 | 2 | 0.17 | 650
12 | CCCC[C@H](NC(C)=O)C(=O)N[C@@H](Cc1c[nH]cn1)C(=O)N[C@H](Cc1ccccc1)C(=O)N[C@@H](CCCNC(=N)N)C(=O)N[C@@H](C)C(=O)N[C@@H](Cc1c[nH]c2ccccc12)C(N)=O [Example 9.3, Ac-Nle-His-D-Phe-Arg-Ala-Trp-NH2] (Ac-[Nle]H[dF]RAW-NH2) | 95 | – | 1 | –
13 | CCCC[C@H](NC(C)=O)C(=O)N[C@@H](C)C(=O)N[C@@H](Cc1c[nH]cn1)C(=O)N[C@H](Cc1ccccc1)C(=O)N[C@@H](CCCNC(=N)N)C(=O)N(C)CC(=O)N[C@@H](Cc1c[nH]c2ccccc12)C(N)=O [Example 9.4, Ac-Nle-Ala-His-D-Phe-Arg-Sar-Trp-NH2] (Ac-[Nle]AH[dF]R[Sar]W-NH2) | 77 | 2 | 0.17 | 870
14 | CCCC[C@H](NC(C)=O)C(=O)N[C@@H](C)C(=O)N[C@@H](Cc1c[nH]cn1)C(=O)N[C@H](Cc1ccccc1)C(=O)N[C@@H](C)C(=O)N[C@@H](C)C(=O)N[C@@H](Cc1c[nH]c2ccccc12)C(N)=O [Example 9.16, Ac-Nle-Ala-His-D-Phe-Ala-Ala-Trp-NH2] (Ac-[Nle]AH[dF]AAW-NH2) | 99 | – | 4 | –
15 | CCCC[C@H](NC(C)=O)C(=O)N[C@@H](C)C(=O)N[C@@H](CCCCN)C(=O)N[C@H](Cc1ccccc1)C(=O)N[C@@H](CCCNC(=N)N)C(=O)N[C@@H](C)C(=O)N[C@@H](Cc1c[nH]c2ccccc12)C(N)=O [Example 9.20, Ac-Nle-Ala-Lys-D-Phe-Arg-Ala-Trp-NH2] (Ac-[Nle]AK[dF]RAW-NH2) | 107 | 4 | – | –
16 | CCCC[C@H](NC(C)=O)C(=O)N[C@@H](C)C(=O)N[C@@H](Cc1c[nH]cn1)C(=O)N[C@H](Cc1ccccc1)C(=O)N[C@@H](CCCNC(=N)N)C(=O)N1CCC[C@@H]1C(=O)N[C@@H](Cc1c[nH]c2ccccc12)C(N)=O [Example 9.11, Ac-Nle-Ala-His-D-Phe-Arg-D-Pro-Trp-NH2] (Ac-[Nle]AH[dF]R[dP]W-NH2) | 70 | 14 | 1 | 6200
17 | CCCC[C@H](NC(C)=O)C(=O)N[C@@H](C)C(=O)N[C@@H](C)C(=O)N[C@H](Cc1ccccc1)C(=O)N[C@@H](CCCNC(=N)N)C(=O)N[C@@H](C)C(=O)N[C@@H](Cc1c[nH]c2ccccc12)C(N)=O [Example 9.17, Ac-Nle-Ala-Ala-D-Phe-Arg-Ala-Trp-NH2] (Ac-[Nle]AA[dF]RAW-NH2) | 94 | – | – | –
18 | CCCC[C@H](NC(C)=O)C(=O)N[C@@H](C)C(=O)N[C@@H](Cc1c[nH]cn1)C(=O)N[C@@H](Cc1ccccc1)C(=O)N[C@@H](CCCNC(=N)N)C(=O)NCC(=O)N[C@@H](Cc1c[nH]c2ccccc12)C(N)=O [Example 9.7, Ac-Nle-Ala-His-Phe-Arg-Gly-Trp-NH2] (Ac-[Nle]AHFRGW-NH2) | 75 | – | – | –
